pIC50: −log10 of the molar value.
Target: T1, human FSH receptor (Homo sapiens, UniProt P23945)
T1 construct: expressed in transfected cells; host or cells: CHO cells (hFSHR clone 16)
T1 sequence (P23945 18-695): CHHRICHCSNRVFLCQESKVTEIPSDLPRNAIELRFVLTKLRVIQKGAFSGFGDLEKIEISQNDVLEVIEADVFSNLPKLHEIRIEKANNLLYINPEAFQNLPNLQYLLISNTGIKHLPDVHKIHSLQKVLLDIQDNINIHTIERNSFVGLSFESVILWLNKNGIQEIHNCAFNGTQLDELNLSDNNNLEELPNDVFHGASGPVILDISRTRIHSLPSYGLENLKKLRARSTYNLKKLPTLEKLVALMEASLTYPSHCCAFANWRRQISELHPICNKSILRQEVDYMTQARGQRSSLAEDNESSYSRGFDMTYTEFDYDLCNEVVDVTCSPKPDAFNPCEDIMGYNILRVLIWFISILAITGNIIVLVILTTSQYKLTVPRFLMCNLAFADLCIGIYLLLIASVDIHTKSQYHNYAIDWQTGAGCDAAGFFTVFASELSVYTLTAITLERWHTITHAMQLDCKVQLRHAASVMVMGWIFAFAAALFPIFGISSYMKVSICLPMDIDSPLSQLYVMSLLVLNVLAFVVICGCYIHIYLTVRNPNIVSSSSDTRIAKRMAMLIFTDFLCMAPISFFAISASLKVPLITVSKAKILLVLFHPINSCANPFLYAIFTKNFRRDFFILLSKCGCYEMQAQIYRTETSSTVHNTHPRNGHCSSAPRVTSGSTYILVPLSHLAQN
Test: HTRF assay for measuring cAMP in cells (FSH-antagonistic effect)
Format: cell-based
Conditions: hFSHR clone 16 cells (CHO cells stably transfected with the human FSH receptor), in the presence of 1e-9 mol/l hFSH, 37° C. for 2 h
Protocol: HTRF Assay for Measuring cAMP in Cells
The method is based on a competitive immunoassay between native cAMP, which has been produced by the cells, and cAMP which is labelled with cAMPD2 conjugate. The tracer binding was visualized by a monoclonal antibody, anti-cAMP labelled with cryptate [HTRF=homogeneous time-resolved fluorescence].
The specific signal is inversely proportional to the cAMP concentration of the samples employed.
The 665 nm/620 nm fluorescence ratio was evaluated.
Materials used: 96-well plates for the tissue culture, 96-well plates with black edge and black base (e.g. Fluotrac 600 from Greiner), 96-well plates for the substance dilutions of polypropylene and cAMP Femtomolar (4000 wells Kit, CIS Bio International # 62AM5PEJ).
Reagent used: BSA (bovine serum albumin) Fraction V protease-free, IBMX (3-isobutyl-1-methylxanthine), hFSH (human follicle stimulating hormone), Triton X-100 analytical grade, potassium fluoride analytical grade, G 418 (Geneticin) and Accutase.
Buffer 1 (washing and testing buffer) contained PBS, 1 mM CaCl2, 1 mM MgCl2, 0.2% glucose; 0.1% BSA, 1 mM IBMX.
Buffer 2 (2× lysis buffer) contained 1% Triton X-100 in PBS (without CaCl2 and MgCl2).
Buffer 3 (assay buffer) contained 50 mM potassium phosphate buffer (pH 7.0); 800 mM potassium fluoride; 0.2% BSA (always added fresh).
On day 1, the cells were seeded in 96-well plates (3×10^4 cells per well hFSHR clone 16 cells (CHO cells stably transfected with the human FSH receptor in 150 μl of medium). The next day, test substance dilutions were made up. For this purpose, all the substances were diluted in ice-cold buffer 1 (with or without hFSH), and the substance dilutions were placed on ice until applied to the cells. The cell supernatant was then aspirated off, and the cells were washed 2× with 200 μl of buffer 1. The cells were treated with 60 μl of the appropriate substance concentrations at 37° C. for 2 h. The cells were then lysed with 60 μl of buffer 2 (put onto the supernatant) (on a plate shaker at RT for 30 min). The test conjugates (cAMP-D2 and anti-cAMP cryptate, CIS Bio) were diluted in buffer 3 in accordance with the manufacturers' information. The actual mixture for measurement was pipetted into a black 96-well plate (in each case 15 μl of the cell lysate diluted with 35 μl of buffer 1; firstly 25 μl of cAMP-D2 conjugate were pipetted and, after 10 min, 25 μl of the anti-cAMP cryptate were added). This is followed by incubation at RT for 90 minutes. The measurement was carried out in a PheraStar (BMG).
Dose-effect curve (hFSH) for the human receptor: 1e-8, 3e-9, 1e-9, 3e-10, 1e-10, 3e-11, 1e-11, 3e-12 mol/l.
The test substances were employed in suitable dilutions in the absence (test for agonism) and in the presence of 1e-9 mol/l hFSH.
The values of the well ratio were averaged and then entered directly in SigmaPlot versus the concentrations. The maximum and minimum values were determined for each plate, and half the difference is to be regarded as IC50.

CNC(=O)CCCc1ccc(C#Cc2ccc(OC(C)C)c(C(=O)N[C@@H](CO)Cc3c[nH]c4ccccc34)c2)cc1 [Example 70, N-[(R)-1-Hydroxymethyl-2-(1H-indol-3-yl)-ethyl]-2-isopropoxy-5-[4-(3-methylcarbamoyl-propyl)-phenylethynyl]-benzamide]
pIC50: 7.35

Cc1cc(C)cc(C#Cc2ccc(OC(C)C)c(C(=O)N[C@@H](CO)Cc3c[nH]c4ccccc34)c2)c1 [Example 40, 5-(3,5-Dimethyl-phenylethynyl)-N-[(R)-1-hydroxymethyl-2-(1H-indol-3-yl)-ethyl]-2-isopropoxy-benzamide]
pIC50: 6.30

CC(C)Oc1ccc(C#Cc2ccc3oc(C(=O)O)cc3c2)cc1C(=O)N[C@@H](CO)Cc1c[nH]c2ccccc12 [Example 127, 5-{3-[(R)-1-Hydroxymethyl-2-(1H-indol-3-yl)-ethylcarbamoyl]-4-isopropoxy-phenylethynyl}-benzofuran-2-carboxylic acid]
pIC50: 7.05

CC(C)Oc1ccc(C#Cc2cccc(CN3CCNCC3)c2)cc1C(=O)N[C@@H](CO)Cc1c[nH]c2ccccc12 [Example 141, N-[(R)-1-Hydroxymethyl-2-(1H-indol-3-yl)-ethyl]-2-isopropoxy-5-(3-piperazin-1-ylmethyl-phenylethynyl)-benzamide]
pIC50: 5.70

CC(C)Oc1ccc(C#Cc2ccc(C#N)cc2)cc1C(=O)N[C@@H](CO)Cc1c[nH]c2ccccc12 [Example 110, 5-(4-Cyano-phenylethynyl)-N-[(R)-1-hydroxymethyl-2-(1H-indol-3-yl)-ethyl]-2-isopropoxy-benzamide]
pIC50: 6.46

CC(C)Oc1ccc(C#Cc2ccccc2C(F)(F)F)cc1C(=O)N[C@@H](CO)Cc1c[nH]c2ccccc12 [Example 119, N-[(R)-2-Hydroxy-1-(1H-indol-3-ylmethyl)-ethyl]-2-isopropoxy-5-(2-trifluoromethyl-phenylethynyl)-benzamide]
pIC50: 7.60

CC(C)Oc1ccc(C#Cc2ccccc2)cc1C(=O)NC(CO)Cc1c[nH]c2cc(F)ccc12 (stereo not shown) [Example 75, N-[2-(6-Fluoro-1H-indol-3-yl)-1-hydroxymethyl-ethyl]-2-isopropoxy-5-phenylethynyl-benzamide]
pIC50: 7.00

CNC(=O)c1cccc(C#Cc2ccc(Cl)c(C(=O)N[C@@H](CO)Cc3c[nH]c4ccccc34)c2)c1 [Example 79, 2-Chloro-N-[(R)-2-hydroxy-1-(1H-indol-3-ylmethyl)-ethyl]-5-(3-methylcarbamoyl-phenylethynyl)-benzamide]
pIC50: 5.46

CC(C)Oc1ccc(C#Cc2cncc(C(N)=O)c2)cc1C(=O)N[C@@H](CO)Cc1c[nH]c2ccccc12 [Example 97, 5-{3-[(R)-1-Hydroxymethyl-2-(1H-indol-3-yl)-ethylcarbamoyl]-4-isopropoxy-phenylethynyl}-nicotinamide]
pIC50: 7.82

CC(C)Oc1ccc(C#Cc2ccc(C(=O)NCCC(N)=O)cc2)cc1C(=O)N[C@@H](CO)Cc1c[nH]c2ccccc12 [Example 177, 5-[4-(2-Carbamoyl-ethylcarbamoyl)-phenylethynyl]-N-[(R)-1-hydroxymethyl-2-(1H-indol-3-yl)-ethyl]-2-isopropoxy-benzamide]
pIC50: 7.70

CC(C)Oc1ccc(C#Cc2ccc(N3CCNC3=O)cc2)cc1C(=O)N[C@@H](CO)Cc1c[nH]c2ccccc12 [Example 146, N-[(R)-1-Hydroxymethyl-2-(1H-indol-3-yl)-ethyl]-2-isopropoxy-5-[4-(2-oxo-imidazolidin-1-yl)-phenylethynyl]-benzamide]
pIC50: 7.15

CC(C)Oc1ccc(C#Cc2ccsc2)cc1C(=O)N[C@@H](CO)Cc1c[nH]c2ccccc12 [Example 100, N-[(R)-2-Hydroxy-1-(1H-indol-3-ylmethyl)-ethyl]-2-isopropoxy-5-thiophen-3-ylethynyl-benzamide]
pIC50: 7.15

CC(C)Oc1ccc(C#Cc2ccc(C3(O)CCNCC3)cc2)cc1C(=O)N[C@@H](CO)Cc1c[nH]c2ccccc12 [Example 106, N-[(R)-1-Hydroxymethyl-2-(1H-indol-3-yl)-ethyl]-5-[4-(4-hydroxy-piperidin-4-yl)-phenylethynyl]-2-isopropoxy-benzamide]
pIC50: 5.40

CNC(=O)c1ccc(C#Cc2cccc(C(=O)N[C@@H](CO)Cc3c[nH]c4ccccc34)c2)cc1 [Example 72, N-[(R)-1-Hydroxymethyl-2-(1H-indol-3-yl)-ethyl]-5-(4-methylcarbamoyl-phenylethynyl)-benzamide]
pIC50: 5.60

CC(C)Oc1ccc(C#Cc2cccc(C(=O)NCCS(N)(=O)=O)c2)cc1C(=O)N[C@@H](CO)Cc1c[nH]c2ccccc12 [Example 167, N-[(R)-1-Hydroxymethyl-2-(1H-indol-3-yl)-ethyl]-2-isopropoxy-5-[3-(2-sulfamoyl-ethylcarbamoyl)-phenylethynyl]-benzamide]
pIC50: 7.64

CC(C)Oc1ccc(C#Cc2ccccc2CC(=O)O)cc1C(=O)N[C@@H](CO)Cc1c[nH]c2ccccc12 [Example 58, (2-{3-[(R)-1-Hydroxymethyl-2-(1H-indol-3-yl)-ethylcarbamoyl]-4-isopropoxy-phenylethynyl}-phenyl)-acetic acid]
pIC50: 5.60

CC(C)Oc1ccc(C#Cc2ccc(OCCN(C)C)cc2)cc1C(=O)N[C@@H](CO)Cc1c[nH]c2ccccc12 [Example 103, 5-[4-(2-Dimethylamino-ethoxy)-phenylethynyl]-N-[(R)-1-hydroxymethyl-2-(1H-indol-3-yl)-ethyl]-2-isopropoxy-benzamide]
pIC50: 5.89

CC(C)Oc1ccc(C#Cc2cncc(C3=NNC(=O)C3)c2)cc1C(=O)N[C@@H](CO)Cc1c[nH]c2ccccc12 [Example 66, N—[(R)-1-Hydroxymethyl-2-(1H-indol-3-yl)-ethyl]-2-isopropoxy-5-[5-(5-oxo-4,5-dihydro-1H-pyrazol-3-yl)-pyridin-3-ylethynyl]-benzamide]
pIC50: 8.00

CC(C)Oc1ccc(C#Cc2ccc3c(c2)C(=O)NC3=O)cc1C(=O)N[C@@H](CO)Cc1c[nH]c2ccccc12 [Example 156, 5-(1,3-Dioxo-2,3-dihydro-1H-isoindol-5-ylethynyl)-N-[(R)-1-hydroxymethyl-2-(1H-indol-3-yl)-ethyl]-2-isopropoxy-benzamide]
pIC50: 7.82

CC(C)Oc1ccc(C#Cc2cncnc2)cc1C(=O)N[C@@H](CO)Cc1c[nH]c2ccccc12 [Example 46, N-[(R)-1-Hydroxymethyl-2-(1H-indol-3-yl)-ethyl]-2-isopropoxy-5-pyrimidin-5-ylethynyl-benzamide]
pIC50: 6.82

CC(C)Oc1ccc(C#Cc2ccc(-c3cc[nH]n3)cc2)cc1C(=O)N[C@@H](CO)Cc1c[nH]c2ccccc12 [Example 142, N-[(R)-2-Hydroxy-1-(1H-indol-3-ylmethyl)-ethyl]-2-isopropoxy-5-[4-(1H-pyrazol-3-yl)-phenylethynyl]-benzamide]
pIC50: 8.00

CC(C)Oc1ccc(C#Cc2ccc(N3CCNCC3)cc2)cc1C(=O)N[C@@H](CO)Cc1c[nH]c2ccccc12 [Example 140, N-[(R)-1-Hydroxymethyl-2-(1H-indol-3-yl)-ethyl]-2-isopropoxy-5-(4-piperazin-1-yl-phenylethynyl)-benzamide]
pIC50: 5.46

From patent US20080221195A1, “1,2-DIARYLACETYLENE DERIVATIVES OF ACYLTRYPTOPHANOLS” (priority 2006, published 2008)
